Laboratory results: PubChem BioAssay (NCI)
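1) Cells in 96-well plates. 2) Compound, 48 h, 5 concentrations. 3) Linear interpolation between surrounding doses. 4) Unreached endpoint = highest concentration. TGI: concentration producing complete growth inhibition.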

Columns and labels:
Experiment in all cases: growth of human tumour cells (NCI), 48 h
A498 renal = test system: A498 renal
A549 NSCLC = test system: A549 NSCLC
DU-145 prostate = test system: DU-145 prostate
EKVX NSCLC = test system: EKVX NSCLC
HCC-2998 colon = test system: HCC-2998 colon
HCT-15 colon = test system: HCT-15 colon
HL-60(TB) leukemia = test system: HL-60(TB) leukemia
HOP-62 NSCLC = test system: HOP-62 NSCLC
HOP-92 NSCLC = test system: HOP-92 NSCLC
LOX IMVI melanoma = test system: LOX IMVI melanoma
MDA-N = test system: MDA-N
OVCAR-3 ovarian = test system: OVCAR-3 ovarian
OVCAR-8 ovarian = test system: OVCAR-8 ovarian
PC-3 prostate = test system: PC-3 prostate
SF-268 CNS = test system: SF-268 CNS
SF-539 CNS = test system: SF-539 CNS
SK-MEL-2 melanoma = test system: SK-MEL-2 melanoma
SR leukemia = test system: SR leukemia
T-47D breast = test system: T-47D breast
NCI/ADR-RES ovarian = test system: NCI/ADR-RES ovarian

Row | SMILES | TGI (A498 renal) [µM] | TGI (A549 NSCLC) [µM] | TGI (DU-145 prostate) [µM] | TGI (EKVX NSCLC) [µM] | TGI (HCC-2998 colon) [µM] | TGI (HCT-15 colon) [µM] | TGI (HL-60(TB) leukemia) [µM] | TGI (HOP-62 NSCLC) [µM] | TGI (HOP-92 NSCLC) [µM] | TGI (LOX IMVI melanoma) [µM] | TGI (MDA-N) [µM] | TGI (OVCAR-3 ovarian) [µM] | TGI (OVCAR-8 ovarian) [µM] | TGI (PC-3 prostate) [µM] | TGI (SF-268 CNS) [µM] | TGI (SF-539 CNS) [µM] | TGI (SK-MEL-2 melanoma) [µM] | TGI (SR leukemia) [µM] | TGI (T-47D breast) [µM] | TGI (NCI/ADR-RES ovarian) [µM]
1 | O=C1C=C(N2CCCC2)C(=O)c2c(O)ccc(O)c21 | > 10 | > 10 | > 10 | > 10 | > 10 | > 10 | > 10 | > 10 | > 10 | > 10 | > 10 | > 10 | > 10 | > 10 | > 10 | > 10 | > 10 | > 1 | > 10 | –
2 | C[C@]12CC[C@H](O)CC1=CC[C@@H]1C2CC[C@]2(C)c3nn(-c4ccc(F)cc4)nc3CC12 (stereo not given in full) | > 100 | > 100 | > 100 | > 100 | 72.7 | – | > 100 | > 100 | > 100 | – | > 100 | > 100 | > 100 | > 100 | > 100 | > 100 | – | > 100 | > 100 | –
3 | c1ccc2c(c1)CCN(C1=NCCO1)C2 | > 10 | > 10 | > 10 | > 10 | > 10 | > 10 | > 10 | > 10 | > 10 | > 10 | > 10 | > 10 | > 10 | > 10 | > 10 | > 10 | > 10 | – | > 10 | > 10
4 | COC(=O)C1=C(O)C(C(=O)OC)[C@]2(O)[C@H](C(=O)OC)[C@H]1C[C@@H](c1cccc(OC)c1)[C@H]2C(=O)OC (stereo not given in full) | 55.9 | 75.3 | – | > 100 | 42.7 | 86.3 | > 100 | 89.5 | > 100 | > 100 | 64.4 | – | > 100 | – | > 100 | > 100 | 44.5 | > 100 | > 100 | > 100
5 | COc1ccc(/C=C2\Sc3nnc(C)n3N=C2c2cc(F)c(Cl)cc2Cl)cc1OC | 37.1 | 56.2 | 27.8 | 22.7 | 32.6 | 21.9 | 96.4 | 33.3 | 28.6 | 31.4 | 17.6 | 16 | 37.9 | 37.7 | 50.9 | 37.7 | 33.6 | – | > 100 | 35.6
6 | O=C1c2cc([N+](=O)[O-])cnc2S(=O)(=O)N1c1ccc(Br)cc1 | – | > 100 | > 100 | > 100 | > 100 | > 100 | > 100 | > 100 | > 100 | > 100 | > 100 | > 100 | > 100 | > 100 | > 100 | > 100 | > 100 | > 100 | > 100 | > 100
7 | COc1ccccc1C1=C2C(=O)N(C)C(c3ccccc3OC)=C2C(=O)N1C | > 100 | > 100 | > 100 | > 100 | > 100 | > 100 | > 100 | 43.9 | > 100 | > 100 | > 100 | > 100 | > 100 | > 100 | > 100 | 64.2 | – | – | > 100 | > 100
8 | CSc1nc2c(c(=O)n1C)N=C(c1ccc(Cl)cc1)CC(c1ccccc1)N2 (stereo not given) | > 100 | 73.7 | 73 | 65.1 | 53.1 | – | 62.4 | 71.4 | > 100 | 54.3 | 30.3 | > 100 | > 100 | > 100 | – | 31.7 | 29.5 | > 100 | – | 74.1
9 | CC1=NC2(CCCCC2)N(Cl)C(=O)C1SC#N (stereo not given) | > 100 | 24.8 | > 100 | 31.9 | 42 | 66.6 | > 100 | 47.8 | – | 35.4 | 32.2 | 35.2 | 32.7 | 32.1 | 33.5 | 35.9 | 48.2 | > 100 | 62.7 | 56.2
10 | O=C(Nc1ccccc1)c1cc(S(=O)(=O)Nc2n[nH]c(=O)[nH]2)c(SSc2cc(Cl)c(C(=O)Nc3ccccc3)cc2S(=O)(=O)Nc2n[nH]c(=O)[nH]2)cc1Cl | > 100 | > 100 | – | > 100 | > 100 | > 100 | > 100 | > 100 | > 100 | > 100 | > 100 | > 100 | > 100 | > 100 | > 100 | – | > 100 | > 100 | – | > 100
11 | O=C1OC(C2Cc3ccccc3C2=O)c2ccccc21 (stereo not given) | – | > 100 | > 100 | > 100 | > 100 | > 100 | > 100 | > 100 | > 100 | > 100 | > 100 | > 100 | > 100 | > 100 | > 100 | > 100 | > 100 | > 100 | > 100 | > 100
12 | [N-]=[N+]=C(C(=O)OCC#CCOC(=O)C(=[N+]=[N-])S(=O)(=O)c1ccccc1)S(=O)(=O)c1ccccc1 | > 10 | > 10 | > 10 | > 10 | > 10 | > 10 | > 10 | > 10 | > 10 | > 10 | > 10 | > 10 | > 10 | > 10 | > 10 | > 10 | > 10 | – | > 10 | > 10
13 | CC(C)=NNc1cnnc2ccc([N+](=O)[O-])cc12 | – | > 100 | > 100 | > 100 | – | > 100 | 43.2 | – | > 100 | – | > 100 | – | > 100 | > 100 | > 100 | > 100 | > 100 | > 100 | > 100 | > 100
14 | CCSCC(=O)N1CCc2c([nH]c3ccccc23)C1=O | – | > 100 | > 100 | > 100 | > 100 | > 100 | > 100 | > 100 | 92.8 | > 100 | > 100 | > 100 | > 100 | > 100 | > 100 | > 100 | > 100 | > 100 | > 100 | > 100
15 | Nc1nc2cc(CNc3ccc(C(=O)O)cc3)ccc2nc1-c1ccccc1 | > 100 | > 100 | > 100 | – | > 100 | > 100 | > 100 | > 100 | – | > 100 | > 100 | > 100 | > 100 | > 100 | > 100 | > 100 | > 100 | > 100 | > 100 | > 100
16 | Cc1ccc(S(=O)(=O)N(CC(O)c2ccccc2)c2ccccc2F)cc1 (stereo not given) | 36 | 41.4 | 32.2 | > 100 | 53.2 | 33 | 9.13 | 33.8 | 22.9 | 31.5 | 33.8 | 25 | 36.9 | 32.2 | 31.1 | 30.7 | 32.1 | – | 40.7 | 35.1
17 | NNC(=O)Cc1cccnc1 | > 100 | > 100 | > 100 | > 100 | > 100 | > 100 | > 100 | > 100 | > 100 | > 100 | > 100 | > 100 | > 100 | > 100 | > 100 | > 100 | > 100 | – | > 100 | > 100
18 | CCn1nc(-c2ccccc2)c2c1N(C)c1ccccc1-n1c(-c3ccccc3)nnc1-2 | 11.2 | 29.9 | 29.7 | – | 29.3 | 23.4 | – | 32.2 | 35.9 | 33 | 28.9 | – | 62.3 | 27.7 | 32.5 | 48 | 32.8 | > 100 | 46.9 | 40.3
19 | COc1ccc(C2c3cc4c(cc3OC(NNC(N)=O)C2C)OCO4)cc1 (stereo not given) | 8.59 | > 100 | > 100 | > 100 | 35 | 36.3 | 5.22 | > 54.4 | 78.7 | > 100 | 6.86 | 14.3 | > 57.9 | 53.8 | > 100 | 4.86 | > 100 | – | > 100 | > 100
20 | O=c1[nH]c2nccnc2c2c([N+](=O)[O-])cccc12 | > 100 | > 100 | > 100 | > 100 | > 100 | > 100 | > 100 | > 100 | – | > 100 | > 100 | > 100 | > 100 | > 100 | > 100 | > 100 | > 100 | > 100 | 73.4 | > 100
21 | O=c1[nH]nc(Cc2ccccc2)n1/N=C/c1ccc([N+](=O)[O-])o1 | 23.1 | > 100 | 42.3 | 16.7 | 71.6 | > 100 | > 100 | 22 | 30.1 | > 100 | 4.83 | 29.8 | 19.2 | 20.9 | 11.7 | 8.94 | 16 | – | 79.1 | 13.1
22 | Cc1ccccc1C(=O)C#Cc1cn(C2CC(O)C(CO)O2)c(=O)[nH]c1=O (stereo not given) | – | > 100 | > 100 | > 100 | > 100 | > 100 | > 100 | > 100 | > 100 | – | > 100 | > 100 | > 100 | > 100 | > 100 | > 100 | > 100 | > 100 | > 100 | > 100
23 | O=c1c(/C=C/c2c(O)ccc3ccccc23)nnc2sc(-c3cccc([N+](=O)[O-])c3)nn12 | – | – | > 100 | 79.4 | – | > 100 | 13.5 | > 100 | > 100 | > 100 | > 100 | 7.23 | > 100 | 46.5 | 89.8 | – | 70.1 | > 100 | – | 67.8
24 | c1nncn1C12C3C4C5C3C1C5C42 (stereo not given) | > 100 | > 100 | > 100 | > 100 | > 100 | > 100 | > 100 | > 100 | – | > 100 | > 100 | – | > 100 | > 100 | > 100 | > 100 | > 100 | > 100 | > 100 | > 100
25 | CCOC(=O)CN=C1Nc2ccccc2C(=O)N2CSCC12 (stereo not given) | > 100 | > 100 | > 100 | > 100 | > 100 | > 100 | – | > 100 | – | > 100 | > 100 | > 100 | > 100 | > 100 | > 100 | – | > 100 | > 100 | > 100 | > 100
